# Reference: article PMC8359193, “Summary of reference chemicals evaluated by the fish short‐term reproduction assay, OECD TG229, using Japanese Medaka, Oryzias latipes” (Journal of Applied Toxicology, 2021)
# pEC50: −log10 of the molar value. Entries after “also recorded” stand apart in the source; their conditions may differ.
# Experiments:
# medaka ARβ (mARβ) = medaka ARβ (mARβ) (Oryzias latipes, UniProt D1MV73); test: Medaka ARβ reporter gene assay (RGA), agonist assay, HepG2 cells; type: cell-based, Japanese medaka (Oryzias latipes)
# Procedure: To support interpretation of the biological effects observed in the FSTRA studies, in vitro RGAs using medaka Esr1 (mEsr1) and medaka ARβ (mARβ) were performed for the 16 test chemicals.
# For the assays, human liver cancer cell line, HepG2, was used as the host cells, and mARβ/pcDNA3.1, MMTV‐Luc, and pRL‐TK‐Rlu were used as mARβ expression vector, reporter vector, and internal control vector, respectively.
# Effect concentrations, that is, EC50 (a half maximal effective concentration) in the agonist assay and IC50 (a half maximal inhibitory concentration) in the antagonist assay, were estimated by nonlinear curve fitting (e.g., three parameters logistic regression curve) using GraphPad Prism (GraphPad Software Inc., La Jolla, CA, USA).
# [1] = system: Japanese medaka (Oryzias latipes); test: Fish short-term reproduction assay (FSTRA, OECD TG229), 21-day flow-through exposure; settings: for GSI Female / HSI Female / Length Female / Weight Female / GSI Male / HSI Male / Length Male / Weight Male: at completion of exposure; for Fertility rate (%) / Mortality (%) Female / Mortality (%) Male / Number of fertilized eggs / Number of total eggs / SSC Female / SSC Male / VTG (ng/mg of liver) Female / VTG (ng/mg of liver) Male: 21 days
# How it was run: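 Japanese medaka (NIES-R strain, 16 ± 2 weeks old) were exposed in flow-through tanks for 3 weeks, three males and three females per tank, four replicate tanks per group, with a dilution water control. Concentrations were spaced by a factor of 2–5. Eggs were collected daily and counted as fertilized or unfertilized.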
# Chain of medaka ARβ (mARβ) (D1MV73 entry or part of it): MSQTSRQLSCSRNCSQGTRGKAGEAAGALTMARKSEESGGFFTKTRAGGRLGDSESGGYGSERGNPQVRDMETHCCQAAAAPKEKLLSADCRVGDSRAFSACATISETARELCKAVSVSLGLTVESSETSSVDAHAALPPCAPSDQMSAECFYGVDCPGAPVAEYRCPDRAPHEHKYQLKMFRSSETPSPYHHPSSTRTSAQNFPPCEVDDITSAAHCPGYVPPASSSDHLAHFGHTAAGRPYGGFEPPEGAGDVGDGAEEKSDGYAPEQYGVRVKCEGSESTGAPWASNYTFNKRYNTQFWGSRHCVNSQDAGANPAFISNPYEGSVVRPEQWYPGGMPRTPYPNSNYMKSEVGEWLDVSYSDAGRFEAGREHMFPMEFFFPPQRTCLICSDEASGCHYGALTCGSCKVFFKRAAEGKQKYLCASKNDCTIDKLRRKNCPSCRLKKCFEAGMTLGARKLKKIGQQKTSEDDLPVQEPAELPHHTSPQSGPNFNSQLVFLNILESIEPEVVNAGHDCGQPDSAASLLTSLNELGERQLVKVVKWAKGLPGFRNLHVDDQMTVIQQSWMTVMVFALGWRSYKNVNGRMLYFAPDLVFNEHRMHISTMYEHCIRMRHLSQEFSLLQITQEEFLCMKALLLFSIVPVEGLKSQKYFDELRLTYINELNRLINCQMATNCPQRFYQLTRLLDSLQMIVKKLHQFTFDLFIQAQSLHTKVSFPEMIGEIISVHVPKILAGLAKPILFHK
smiles,measurement,setting,value
"CCCCCCCCCCCCOS(=O)(=O)[O-].[Na+] [SDS, Sodium dodecyl sulfate]",mARβ agonist activity (in words),medaka ARβ (mARβ),no significant increase in hold activation; also recorded: neithEsr agonistic nor antagonistic activity
same,pEC50,"medaka ARβ (mARβ); mARβ RGA agonist assay, ND = no significant response even at the highest assay concentration (in parentheses)",< 4.00
same,"effect on fertility rate, in words",[1]; 21-day exposure,significant decrease; also recorded: significant reduction
same,"effect on male hepatic VTG, in words",[1]; 21-day exposure,no VTG induction
same,GSI Female,[1]; measured conc. 0.748 mg/L,10.9%
same,HSI Female,[1]; measured conc. 0.748 mg/L,4.8%
same,Length Female,[1]; measured conc. 0.748 mg/L,35.6 mm
same,Weight Female,[1]; measured conc. 0.748 mg/L,547 mg
same,GSI Female,[1]; measured conc. 2.46 mg/L,10.8%
same,HSI Female,[1]; measured conc. 2.46 mg/L,4.8%
same,Length Female,[1]; measured conc. 2.46 mg/L,36.6 mm
same,Weight Female,[1]; measured conc. 2.46 mg/L,573 mg
same,GSI Female,[1]; measured conc. 10.0 mg/L,11.0%
same,HSI Female,[1]; measured conc. 10.0 mg/L,4.9%
same,Length Female,[1]; measured conc. 10.0 mg/L,36.1 mm
same,Weight Female,[1]; measured conc. 10.0 mg/L,573 mg
same,GSI Male,[1]; measured conc. 0.748 mg/L,0.88%
same,HSI Male,[1]; measured conc. 0.748 mg/L,2.3%
same,Length Male,[1]; measured conc. 0.748 mg/L,36.7 mm
same,Weight Male,[1]; measured conc. 0.748 mg/L,544 mg
same,GSI Male,[1]; measured conc. 2.46 mg/L,0.91%
same,HSI Male,[1]; measured conc. 2.46 mg/L,2.0%
same,Length Male,[1]; measured conc. 2.46 mg/L,36.7 mm
same,Weight Male,[1]; measured conc. 2.46 mg/L,519 mg
same,GSI Male,[1]; measured conc. 10.0 mg/L,1.17%
same,HSI Male,[1]; measured conc. 10.0 mg/L,2.2%
same,Length Male,[1]; measured conc. 10.0 mg/L,35.6 mm
same,Weight Male,[1]; measured conc. 10.0 mg/L,493 mg
same,Fertility rate (%),[1]; measured conc. 0.748 mg/L,95%
same,Mortality (%) Female,[1]; measured conc. 0.748 mg/L,0%
same,Mortality (%) Male,[1]; measured conc. 0.748 mg/L,0%
same,Number of fertilized eggs,[1]; measured conc. 0.748 mg/L,27
same,Number of total eggs,[1]; measured conc. 0.748 mg/L,29 ± 3.9 /female/day
same,SSC Female,[1]; measured conc. 0.748 mg/L,0 ± 0
same,SSC Male,[1]; measured conc. 0.748 mg/L,107 ± 8.7
same,VTG (ng/mg of liver) Female,[1]; measured conc. 0.748 mg/L,"3,780 ± 305 ng/mg of liver"
same,VTG (ng/mg of liver) Male,[1]; measured conc. 0.748 mg/L,3.0 ± 4.2 ng/mg of liver
same,Fertility rate (%),[1]; measured conc. 2.46 mg/L,93%
same,Mortality (%) Female,[1]; measured conc. 2.46 mg/L,0%
same,Mortality (%) Male,[1]; measured conc. 2.46 mg/L,0%
same,Number of fertilized eggs,[1]; measured conc. 2.46 mg/L,27
same,Number of total eggs,[1]; measured conc. 2.46 mg/L,30 ± 2.7 /female/day
same,SSC Female,[1]; measured conc. 2.46 mg/L,0 ± 0
same,SSC Male,[1]; measured conc. 2.46 mg/L,112 ± 11
same,VTG (ng/mg of liver) Female,[1]; measured conc. 2.46 mg/L,"4,930 ± 189 ng/mg of liver"
same,VTG (ng/mg of liver) Male,[1]; measured conc. 2.46 mg/L,6.6 ± 11 ng/mg of liver
same,Fertility rate (%),[1]; measured conc. 10.0 mg/L,85%
same,Mortality (%) Female,[1]; measured conc. 10.0 mg/L,0%
same,Mortality (%) Male,[1]; measured conc. 10.0 mg/L,0%
same,Number of fertilized eggs,[1]; measured conc. 10.0 mg/L,25
same,Number of total eggs,[1]; measured conc. 10.0 mg/L,30 ± 1.8 /female/day
same,SSC Female,[1]; measured conc. 10.0 mg/L,0 ± 0
same,SSC Male,[1]; measured conc. 10.0 mg/L,110 ± 3.5
same,VTG (ng/mg of liver) Female,[1]; measured conc. 10.0 mg/L,"4,520 ± 906 ng/mg of liver"
same,VTG (ng/mg of liver) Male,[1]; measured conc. 10.0 mg/L,1.0 ± 0.5 ng/mg of liver
same,"effect on fecundity (number of total eggs), in words","[1]; within the test concentrations, 21-day exposure",no significant effect
